This assay addresses T1, MAPKAPK5 (Homo sapiens, UniProt Q8IW41).
T1 sequence (Q8IW41 1-471 isoform Q8IW41-2): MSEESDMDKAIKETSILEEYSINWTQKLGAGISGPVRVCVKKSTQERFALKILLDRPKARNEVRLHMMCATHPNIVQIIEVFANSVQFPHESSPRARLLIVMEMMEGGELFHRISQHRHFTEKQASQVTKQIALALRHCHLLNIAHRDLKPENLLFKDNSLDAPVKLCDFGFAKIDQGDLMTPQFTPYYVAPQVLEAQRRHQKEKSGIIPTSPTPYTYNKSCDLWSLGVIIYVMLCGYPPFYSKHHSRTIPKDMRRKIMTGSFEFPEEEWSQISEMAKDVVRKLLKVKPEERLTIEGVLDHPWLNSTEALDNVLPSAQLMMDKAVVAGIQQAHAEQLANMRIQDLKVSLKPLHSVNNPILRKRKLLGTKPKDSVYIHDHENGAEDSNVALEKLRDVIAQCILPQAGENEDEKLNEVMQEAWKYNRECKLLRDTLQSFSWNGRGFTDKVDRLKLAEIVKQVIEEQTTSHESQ
As to the kind of experiment: MAPKAP-K5 assay (FlashPlate, 33P-ATP). The assay is classed as biochemical. As to conditions: 0.6 μM ATP; 3 μM peptide substrate; room temperature 30 minutes. The protocol:
3 μM MAPKAP-K5 peptide substrate
The term IC50 denotes the concentration at which inhibition is half-maximal. A high value points to weaker potency. With `c1csc(Nc2ncc(-c3cn[nH]c3)n3ccnc23)n1` [Example 7, N-(5-(1H-pyrazol-4-yl)imidazo[1,2-a]pyrazin-8-yl)thiazol-2-amine], the IC50 was above 1000 nM. `c1nc2c(Nc3nc(CN4CCOCC4)cs3)ncc(-c3cn[nH]c3)n2n1` [Example 3, N-(5-(1H-pyrazol-4-yl)-[1,2,4]triazolo[1,5-a]pyrazin-8-yl)-4-(morpholinomethyl)thiazol-2-amine]: the concentration for half-maximal inhibition (IC50) was above 1000 nM.

Regarding `Cc1cnc(Nc2ncc(-c3ccc4c(c3)CNC4=O)n3ccnc23)s1` [Example 11, 5-(8-(5-methylthiazol-2-ylamino)imidazo[1,2-a]pyrazin-5-yl)isoindolin-1-one], the IC50 fell in the range of 501 to 1000 nM. `c1nc2c(Nc3nc(CN4CCCCC4)cs3)ncc(-c3cn[nH]c3)n2n1` [Example 25, N-(5-(1H-pyrazol-4-yl)-[1,2,4]triazolo[1,5-a]pyrazin-8-yl)-4-(piperidin-1-ylmethyl)thiazol-2-amine] came in with a 50% inhibitory concentration (IC50) above 1000 nM.

`c1cn2c(-c3cn[nH]c3)cnc(Nc3ncc(CN4CCOCC4)s3)c2n1` [Example 15, N-(5-(1H-pyrazol-4-yl)imidazo[1,2-a]pyrazin-8-yl)-5-(morpholinomethyl)thiazol-2-amine]: the concentration for half-maximal inhibition (IC50) is above 1000 nM. `CC(C)N1CCN(Cc2cnc(Nc3ncc(-c4ccc5c(c4)CNC5=O)n4ccnc34)s2)CC1` [Example 18, 5-(8-(5-((4-isopropylpiperazin-1-yl)methyl)thiazol-2-ylamino)imidazo[1,2-a]pyrazin-5-yl)isoindolin-1-one] registered an IC50 of 101 to 500 nM. `O=C1NCc2cc(-c3cnc(Nc4nc5c(s4)CCC5)c4nccn34)ccc21` [Example 12, 5-(8-(5,6-dihydro-4H-cyclopenta[d]thiazol-2-ylamino)imidazo[1,2-a]pyrazin-5-yl)isoindolin-1-one]: the half-maximal inhibitory concentration (IC50) is above 1000 nM. `O=C1NCc2cc(-c3cnc(Nc4nc(CN5CCOCC5)cs4)c4nccn34)ccc21` [Example 1, 5-(8-(4-(morpholinomethyl)thiazol-2-ylamino)imidazo[1,2-a]pyrazin-5-yl)isoindolin-1-one]: the half-inhibitory concentration (IC50) was 101 to 500 nM.

`O=C1NCc2cc(-c3cnc(Nc4ncc(CN5CCOCC5)s4)c4nccn34)ccc21` [Example 16, 5-(8-(5-(morpholinomethyl)thiazol-2-ylamino)imidazo[1,2-a]pyrazin-5-yl)isoindolin-1-one] came in with an IC50 of 101 to 500 nM. The compound `O=C1NCc2cc(-c3cnc(Nc4nc(CN5CCCCC5)cs4)c4nccn34)ccc21` [Example 9, 5-(8-(4-(piperidin-1-ylmethyl)thiazol-2-ylamino)imidazo[1,2-a]pyrazin-5-yl)isoindolin-1-one] came in with an IC50 of 1 to 100 nM. Take `O=C1NCc2cc(-c3cnc(Nc4ncc(CN5CCCCC5)s4)c4nccn34)ccc21` [Example 24, 5-(8-(5-(piperidin-1-ylmethyl)thiazol-2-ylamino)imidazo[1,2-a]pyrazin-5-yl)isoindolin-1-one]: the IC50 was above 1000 nM.

On to `O=C1NCc2cc(-c3cnc(Nc4nncs4)c4nccn34)ccc21` [Example 19, 5-(8-(1,3,4-thiadiazol-2-ylamino)imidazo[1,2-a]pyrazin-5-yl)isoindolin-1-one], for which the IC50 is above 1000 nM. Take `CC(C)N1CCN(C(=O)c2cnc(Nc3ncc(-c4cn[nH]c4)n4ccnc34)s2)CC1` [Example 23]: the IC50 was above 1000 nM. As to `CN(C)Cc1cnc(Nc2ncc(-c3cn[nH]c3)n3ccnc23)s1` [Example 17, N-(5-(1H-pyrazol-4-yl)imidazo[1,2-a]pyrazin-8-yl)-5-((dimethylamino)methyl)thiazol-2-amine], the IC50 is above 1000 nM. Turning to `NC(=O)c1cc(-c2cnc(Nc3nc(CN4CCCCC4)cs3)c3ncnn23)co1` [Example 4, 4-(8-(4-(piperidin-1-ylmethyl)thiazol-2-ylamino)-[1,2,4]triazolo[1,5-a]pyrazin-5-yl)furan-2-carboxamide], the IC50 lay in the range of 1 to 100 nM. The result for `Cc1nc(Nc2ncc(-c3ccc4c(c3)CNC4=O)n3ccnc23)sc1C(=O)N(C)C` [Example 10, N,N,4-trimethyl-2-(5-(1-oxoisoindolin-5-yl)imidazo[1,2-a]pyrazin-8-ylamino)thiazole-5-carboxamide] reads 101 to 500 nM. As to `O=C1NCc2cc(-c3cnc(Nc4nccs4)c4nccn34)ccc21` [Example 6, 5-(8-(thiazol-2-ylamino)imidazo[1,2-a]pyrazin-5-yl)isoindolin-1-one], the 50% inhibitory concentration (IC50) was in the range of 101 to 500 nM. With `O=C1NCc2cc(-c3cnc(Nc4nnc(CCN5CCCCC5)s4)c4nccn34)ccc21` [Example 14, 5-(8-(5-(2-(piperidin-1-yl)ethyl)-1,3,4-thiadiazol-2-ylamino)imidazo[1,2-a]pyrazin-5-yl)isoindolin-1-one], the IC50 lay within 501 to 1000 nM.

The compound `CN1CCN(c2nnc(Nc3ncc(-c4ccc5c(c4)CNC5=O)n4ccnc34)s2)CC1` [Example 20, 5-(8-(5-(4-methylpiperazin-1-yl)-1,3,4-thiadiazol-2-ylamino)imidazo[1,2-a]pyrazin-5-yl)isoindolin-1-one] gave an IC50 of 501 to 1000 nM. The result for `O=C1NCc2cc(-c3cnc(Nc4ncc(C(=O)N5CCOCC5)s4)c4nccn34)ccc21` [Example 13, 5-(8-(5-(morpholine-4-carbonyl)thiazol-2-ylamino)imidazol[1,2-a]pyrazin-5-yl)isoindolin-1-one] reads 501 to 1000 nM.

Values taken from US9006237B2, “Fused pyrazine compounds useful for the treatment of degenerative and inflammatory diseases” (Janssen Pharmaceutica NV, priority 2007, dated 2015).
